Values quoted from earlier work, collected in US8178105B2, “Composition containing Agaricus blazei Murill” (Kyowa Hakko Bio Co., Ltd., priority 2006, dated 2012).

Tested on: Sarcoma-180
Conditions: oral administration; Sarcoma-180 transplanted mouse; non-patent document 5

SMILES: N=C(N)NCCC[C@H](N)C(=O)O [arginine]
- antitumor effect and life extension (in words): marked antitumor effect and life extension
